This note sets out measurements from PMC5017749, “Preclinical Metabolism, Pharmacokinetics and In Vivo Analysis of New Blood-Brain-Barrier Penetrant Fingolimod Analogues: FTY720-C2 and FTY720-Mitoxy” (PLoS ONE, 2016).

The term microsomal CLint denotes a measure of how fast metabolising enzymes remove a compound, apart from limits set by blood flow.

A short description of data set [1]: Metabolic stability (intrinsic clearance) in rat liver microsomes. The format is in vitro ADME, rat (Sprague-Dawley). The conditions noted are these: for microsomal CLint at 1 μM: Sprague-Dawley, pH 7.4, 0.1 mg/mL protein, mean of two determinations; for microsomal CLint at 1 μM / intrinsic clearance interpreted in words / percent of the remaining compound: rat liver microsomes; for percent of the remaining compound: after 60 minute incubation; for Clint in rat liver microsomes relative to human liver microsomes: rat vs human liver microsomes. The procedure:
(§1) Liver microsomal incubations contained 0.1mg/mL microsomal proteins and 1 μM of FTY720-C2 or FTY720-Mitoxy in 100 mM potassium phosphate buffer (pH 7.4) ± an NADPH regenerating system (3.5 mM glucose 6-phosphate, 1.3 mM NADP^+, and 0.4 units/mL glucose-6-phosphate dehydrogenase). Following incubations, reactions were terminated for analysis after 0, 10, 20, 30, and 60 min by the addition of acetonitrile containing C17 sphingosine (300 ng/mL) as the internal standard. Samples were vigorously mixed and centrifuged at 3,400 rpm for 10 min to pellet precipitated proteins. An aliquot of each supernatant was used for LC/MS analysis, for determination of the remaining FTY720-C2 and FTY720-Mitoxy. Similar incubations were performed using a cocktail solution containing 0.2 μM midazolam and 1 μM diclofenac to determine the metabolic activity of the microsomes as an additional control.
(§2) Samples resulting from liver microsomal incubations were analyzed by LC-MS/MS. Aliquots of the supernatants were injected onto an X-Bridge C18 column (2.1 × 50 mm, 3.5-μm particles) (Waters, Milford, MA), preceded by a SecurityGuard C18 guard column (4.0 × 2.0 mm; Phenomenex Inc.). Separations were accomplished with a gradient of 0.1% acetic acid in water (v/v) versus 0.1% acetic acid in acetonitrile: methanol (75:25, v/v) at a rate of 0.8 mL/min. The eluents were further applied into an equipped API 4000 QTrap mass spectrometer (AB Sciex, Foster City, CA) with electrospray ionization (ESI) interface by two coupled LC-10 AT pumps. Peak area ratios of FTY720-C2 or FTY720-Mitoxy against the C17 sphingosine internal standard were used to determine the amount of parent remaining compared to that at 0 min. The percent of FTY720-C2 or FTY720-Mitoxy remaining was calculated by dividing the peak area ratio obtained at each time point by that obtained at 0 min. The in vitro intrinsic clearance (CLint) was calculated by linear regression of the log percent of compound remaining versus time plots using Microsoft Excel, two independent experiments (n = 2) were performed for each compound and species. Then, the mean and standard deviation (SD), of two values for each condition, were calculated using Microsoft Excel with the “AVERAGE” and “STDEV” functions, respectively.
On the technique in general: Liver microsomes are vesicles of endoplasmic reticulum, rich in cytochrome P450 enzymes.

Data set [2] can be described thus: Metabolic stability (intrinsic clearance) in dog liver microsomes. Particulars: for microsomal CLint at 1 μM: Beagle; for percent of the remaining compound: after 60 minute incubation. The format is in vitro ADME, dog (Beagle). The procedure: as §1, §2
Data set [3] can be described thus: Metabolite profiling and identification in human hepatocytes. It is filed as in vitro ADME. Also noted: key to Source (peak identified in human hepatocytes): R = Rat; hr = Human; lowercase letter indicates low abundance; h: lowercase letter indicates low abundance. Particulars: for phosphorylated metabolites / parent peak after 2 hr incubation: human hepatocytes; for parent peak after 2 hr incubation: 1 μM. The procedure: Cryopreserved hepatocytes were grown in culture and incubations were performed to generate samples to measure the formation of FTY720-C2 and FTY720-Mitoxy metabolites. Incubations of 1 mL medium containing 1 million cells and 1 μM of FTY720-C2 and FTY720-Mitoxy were conducted at 37° C in a 5% CO2 incubator for 0, 1 and 2 hr, with gentle shaking. Positive control incubations used a cocktail solution containing 10 μM testosterone and 10 μM diclofenac performed for 0, 1 and 2 hr, under similar conditions to confirm the metabolic activity of the hepatocytes. The reactions were terminated by adding 2 mL acetonitrile containing 0.02% formic acid, and thoroughly mixing with gentle vortexing. Samples were transferred into 6 mL vials and stored in the freezer (-70°C) overnight for protein precipitation. Following overnight precipitations, samples were centrifuged at 3,000 rpm for 10 min to pellet proteins. Supernatants were transferred into clean 6 mL vials and evaporated to dryness using a TurboVap concentrator system. Samples were reconstituted using 600 μL 20% acetonitrile in water, briefly vortexed to resuspend, then aliquoted for LC-MS/MS analysis. Controls incubations also included “No drug control” and “no cell control” samples treated in a similar manner as test article samples.
Metabolite profiling and identification experiments were conducted by LC-MS/MS, composed of an HPLC system consisting of an Agilent Technologies 1200 Series Model G1322A Degasser, Agilent Technologies 1200 Series Model G1312A Binary Pump, Shimadzu HTc autosampler, and Valco Model E60 Flow Diversion Valve, and coupled to an API 4000 mass spectrometer. Separations were accomplished on a Gemini C18 column (150 × 2.0 mm, 5-μm particles; Phenomenex Inc., Torrance, CA), preceded by a SecurityGuard C18 guard column (4.0 × 2.0 mm; Phenomenex Inc.). A two-component mobile phase, consisted of a linear gradient of water containing 0.5% formic acid (v/v) and methanol:acetonitrile (1:1, v/v) containing 0.5% formic acid (v/v), was pumped at 0.3 mL/min. The first 4 min of flow was diverted away from the mass spectrometer. Analysis of the positive control samples was conducted with an HPLC system consisting of two Shimadzu LC-10ATvp pumps and a LEAP Pal autosampler. Separations were accomplished on a Luna C8(2) column (50 × 2.0 mm, 3-μm particles; Phenomenex Inc., Torrance, CA), preceded by a SecurityGuard C18 column (4.0 × 2.0 mm; Phenomenex Inc.). Separation was accomplished with a gradient of water containing 0.2% formic acid and 0.012% NH4OH (v/v) versus acetonitrile at an initial rate of 0.7 mL/min. An API 4000 QTrap mass spectrometer (AB Sciex, Foster City, CA) was used for analysis of positive control samples. Each mass spectrometer used was equipped with an electrospray ionization source and operated in the positive ionization mode. Metabolite identification experiments were performed by recording full scan mass spectral data (Q1MS) for all samples, and selected samples were analyzed to obtain product ion spectra (MS/MS) of test article metabolites identified in the full scan mass spectral data.

For `CCCCCCCCc1ccc(CCC(CO)(CO)NC(C)=O)cc1` [FTY720-C2, N-(1-hydroxy-2-(hydroxymethyl)-4-(4-octylphenyl)butan-2-yl)acetamide], in data set [1], the microsomal CLint at 1 μM came to 79.5 ± 1.41 µL/min/mg, the “intrinsic clearance interpreted in words” value was “high”, the “percent of the remaining compound” value amounted to 1.0 ± 0% and the “Clint in rat liver microsomes relative to human liver microsomes” value is given as ~ 4 fold. In addition, the microsomal CLint at 1 μM in data set [2] (pH 7.4, dog liver microsomes, 0.1 mg/mL protein, 1 μM, mean of two determinations) turned out to be 6 ± 0.28 µL/min/mg. Besides, in data set [2] (dog liver microsomes), the “intrinsic clearance interpreted in words” value is reported as “low” and the “percent of the remaining compound” value turned out to be 69.9 ± 0.6%. The “Source (peak identified in human hepatocytes)” value in data set [3] (FTY720-C2 incubation, Table 4) is listed as “H”. Also, in data set [3], the phosphorylated metabolites result is “never detected” and the “parent peak after 2 hr incubation” value is “more gradual”.

On to `CCCCCCCCc1ccc(CCC(CO)(CO)NC(=O)CC[P+](c2ccccc2)(c2ccccc2)c2ccccc2)cc1` [FTY720-Mitoxy, N-(1-hydroxy-2-(hydroxymethyl)-4-(4-octylphenyl)butan-2-yl)-3’-triphenylphosphoniumpropanamide], for which, in data set [1], the intrinsic metabolic clearance (microsomal CLint) at 1 μM amounted to 7.8 ± 1.98 µL/min/mg, the “intrinsic clearance interpreted in words” value is “low”, the “percent of the remaining compound” value was 65.5 ± 4.9% and the “Clint in rat liver microsomes relative to human liver microsomes” value was “around half”. For the same compound, the microsomal CLint at 1 μM in data set [2] (dog, liver microsomes, pH 7.4, dog liver microsomes, 0.1 mg/mL protein, 1 μM, mean of two determinations) was 1.4 µL/min/mg. For the same compound, in data set [2] (dog liver microsomes), the “intrinsic clearance interpreted in words” value is “low” and the “percent of the remaining compound” value is on record as 112.5 ± 5.0%. For the same compound, in data set [2] (dog liver microsomes, 0.1 mg/mL protein, 1 μM, mean of two determinations), the “Clint (intrinsic clearance)” value worked out at 1.35 ± 1.48 µL/min/mg. Moreover, the “Source (peak identified in human hepatocytes)” value in data set [3] (FTY720-Mitoxy incubation, Table 5) is “H”. Besides, in data set [3], the phosphorylated metabolites entry is “never detected” and the “parent peak after 2 hr incubation” value is given as “most FTY720-Mitoxy was still unchanged”.
